Drawing on PubChem BioAssay (NCI), this text covers TGI and GI50 for 13 compounds.

SMILES strings stand for the structures.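 How tested: cells in 96-well plates exposed to compound for 48 hours at five concentrations. GI50: concentration for 50% inhibition of growth. At the TGI there is no net growth.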 Some results are limits rather than exact numbers.

Among the test systems are EKVX NSCLC; HCT-15 colon; SK-OV-3 ovarian; DMS 114 small cell lung; IGROV1 ovarian; KM12 colon; HOP-18 NSCLC; M19-MEL melanoma; SF-268 CNS; OVCAR-5 ovarian; LXFL 529 NSCLC; MDA-MB-231 breast.
Test in all cases: NCI tumour cell line growth inhibition, 48 h

As to `CC(C)NC(=O)OCc1c(CO)c2c(n1C)-c1ccccc1CC2`, the TGI is greater than 100 µM in the test on EKVX NSCLC; 54.6 µM in the test with HCT-15 colon; greater than 100 µM with SK-OV-3 ovarian; 40.7 µM with DMS 114 small cell lung; greater than 77.6 µM with IGROV1 ovarian; greater than 86.8 µM with KM12 colon. The TGI in the test on HOP-18 NSCLC was 70.1 µM; with M19-MEL melanoma, 59.3 µM; in the test with SF-268 CNS, greater than 100 µM; with OVCAR-5 ovarian, greater than 100 µM.
Regarding `COC(=O)c1ccc(N=NN(C)COc2ccc(Br)cc2)cc1`, the TGI in the test with EKVX NSCLC, in the test on HCT-15 colon, in the test with SK-OV-3 ovarian, in the test on DMS 114 small cell lung, in the test with IGROV1 ovarian and in the test with KM12 colon was greater than 100 µM in each case. In addition, the TGI in the test with HOP-18 NSCLC, with M19-MEL melanoma, in the test with SF-268 CNS and with OVCAR-5 ovarian was greater than 100 µM each time.
As to `CC(C)N=C(N)NC#N`, the TGI in the test on EKVX NSCLC, with LXFL 529 NSCLC, with HCT-15 colon, with SK-OV-3 ovarian, with DMS 114 small cell lung and in the test with IGROV1 ovarian was greater than 100 µM each time. Further, the TGI in the test with KM12 colon, with HOP-18 NSCLC, with M19-MEL melanoma, with SF-268 CNS and in the test with OVCAR-5 ovarian was greater than 100 µM in each case.
As for `CC1=C(O)C(=O)C2C(=O)C1C1Cc3ccccc3C21` (stereo not given), the TGI in the test on EKVX NSCLC, in the test on LXFL 529 NSCLC, with HCT-15 colon, with SK-OV-3 ovarian, in the test on IGROV1 ovarian and in the test on KM12 colon was greater than 100 µM each time. In addition, the TGI in the test with M19-MEL melanoma, in the test on SF-268 CNS and in the test on OVCAR-5 ovarian was greater than 100 µM in each case.
For `COc1ccccc1-c1cc(=O)c2cc3c(cc2[nH]1)OCO3`, the TGI in the test on EKVX NSCLC, in the test on LXFL 529 NSCLC, in the test on HCT-15 colon, in the test with DMS 114 small cell lung, in the test on IGROV1 ovarian and in the test with M19-MEL melanoma was greater than 100 µM each time. The same compound showed a TGI with SF-268 CNS greater than 100 µM. Besides, the figures for the GI50 with DMS 114 small cell lung and with SF-268 CNS were 25 µM and 64.5 µM, respectively.
As for `COc1ccc(/C(Cl)=C(\C=N/O)c2ccc(OC)c(OC)c2)cc1OC`, the TGI in the test with EKVX NSCLC, in the test with LXFL 529 NSCLC, in the test on HCT-15 colon, in the test with SK-OV-3 ovarian, in the test on DMS 114 small cell lung and in the test on IGROV1 ovarian was greater than 100 µM each time. Also, the TGI in the test with KM12 colon, in the test on HOP-18 NSCLC, in the test with M19-MEL melanoma, in the test on SF-268 CNS and in the test with OVCAR-5 ovarian was greater than 100 µM each time.
As for `Cc1cc(/C=C/c2cc[n+](C)c3ccccc23)c(O)c2ncccc12`, the TGI in the test on EKVX NSCLC came to 20 µM; with LXFL 529 NSCLC, 16 µM; with HCT-15 colon, 49.8 µM; in the test on SK-OV-3 ovarian it was 13 µM; with DMS 114 small cell lung, 1.8 µM; in the test with IGROV1 ovarian, 8.39 µM. For the same compound, the TGI in the test with KM12 colon amounted to 18.6 µM; in the test on HOP-18 NSCLC, 11.9 µM; with M19-MEL melanoma, 8.52 µM; in the test on SF-268 CNS it was 11 µM; in the test on OVCAR-5 ovarian it was 16 µM.
Regarding `Cc1c(N2CCN(C)CC2)nc2ccc(Cl)cc2c1-c1ccccc1`, the TGI was 34.1 µM in the test on EKVX NSCLC; 31.7 µM in the test on LXFL 529 NSCLC; 40.7 µM with HCT-15 colon; greater than 100 µM with SK-OV-3 ovarian; 31 µM in the test on DMS 114 small cell lung; 28.5 µM in the test on KM12 colon. For the same compound, in the test on SF-268 CNS, the TGI was greater than 100 µM.
Take `COC1C(O)C(n2ncc3c(SC)nc(SC)nc32)OC1C(O)CO` (stereo not given): the TGI in the test on EKVX NSCLC, in the test with HCT-15 colon, in the test on SK-OV-3 ovarian, with DMS 114 small cell lung, in the test with IGROV1 ovarian and in the test with KM12 colon was greater than 100 µM throughout. The TGI in the test on HOP-18 NSCLC, in the test on M19-MEL melanoma, in the test on SF-268 CNS and with OVCAR-5 ovarian was greater than 100 µM throughout.
On to `COc1ccc(/C=C2\CCS(=O)(=O)c3ccccc3C2=O)cc1`, for which the TGI in the test with EKVX NSCLC was 46.4 µM; with HCT-15 colon, 43.1 µM; with SK-OV-3 ovarian, greater than 100 µM; in the test on IGROV1 ovarian it was 43.1 µM; in the test on KM12 colon it was 31 µM; in the test with SF-268 CNS it was 98.2 µM. In addition, the figures for the TGI in the test with MDA-MB-231 breast and with OVCAR-5 ovarian were 75.3 µM and greater than 100 µM, respectively.
As for `CC(C)C(=O)Nc1cc(C(F)(F)F)ccc1[N+](=O)[O-]`, the TGI in the test on EKVX NSCLC, in the test with HCT-15 colon, in the test with SK-OV-3 ovarian, in the test on IGROV1 ovarian, in the test on KM12 colon and in the test on SF-268 CNS was greater than 100 µM each time. Moreover, the TGI with MDA-MB-231 breast and with OVCAR-5 ovarian was greater than 100 µM in each case.
As to `COC(O)C(=O)c1ccc2c(c1)CC1(C2)Cc2cc3c(cc2C1=O)CCC3` (stereo not given), the TGI in the test on EKVX NSCLC turned out to be 45.7 µM; with HCT-15 colon it was 58 µM; in the test on SK-OV-3 ovarian, 31.9 µM; in the test on IGROV1 ovarian, 32.8 µM; in the test with KM12 colon, 43.9 µM; with SF-268 CNS it was 43.3 µM. For the same compound, the TGI in the test with MDA-MB-231 breast was 73.3 µM; in the test with OVCAR-5 ovarian, 52.3 µM.
Regarding `COc1ccc(Cc2nnc(Nc3ccc(Br)cc3)[nH]c2=O)cc1OC`, the TGI in the test on EKVX NSCLC, in the test on HCT-15 colon, in the test with SK-OV-3 ovarian, with IGROV1 ovarian, in the test with KM12 colon and in the test with SF-268 CNS was greater than 100 µM throughout. Moreover, the TGI with MDA-MB-231 breast and in the test on OVCAR-5 ovarian was greater than 100 µM throughout.
